Data taken from patent publication US9951372B2, “Compounds and methods for assaying redox state of metabolically active cells and methods for measuring NAD(P)/NAD(P)H” (PROMEGA CORPORATION, priority 2011, dated 2018).
Read-outs that look alike come from different tables or passages of the source.

Legend:
Type in all cases: biochemical
rat diaphorase [1] = tested on: rat diaphorase
Clostridium diaphorase = tested on: Clostridium diaphorase
rat diaphorase [2] = tested on: rat diaphorase; remark: listed apart in the source
rat diaphorase [3] = details: 20 μM compound
rat diaphorase [4] = details: 20 μM compound, 40 min
rat diaphorase [5] = tested on: rat diaphorase; remark: listed apart in the source

CC1=C(C)C(=O)C(C(C)(C)CC(=O)N(C)c2ccc(COC(=O)Nc3ccc4nc(C5=N[C@@H](C(=O)O)CS5)sc4c3)cc2)=C(C)C1=O [PBI 4550, Quinone trimethyllock-N-methyl-luciferin carbamate]
Avg RLU With NADH (rat diaphorase [1]): 62987 RLU
Avg RLU Without NADH (rat diaphorase [1]): 2337 RLU
S/B (rat diaphorase [1]): 27
Avg RLU With NADH (Clostridium diaphorase): 25644 RLU
Avg RLU Without NADH (Clostridium diaphorase): 2597 RLU
S/B (Clostridium diaphorase): 10
First Reading With menadione (rat diaphorase [2]): 1786 RLU
First Reading Without menadione (rat diaphorase [2]): 16495 RLU
Last Reading With menadione (rat diaphorase [2]): 2393 RLU
Last Reading Without menadione (rat diaphorase [2]): 100603 RLU

CC1=C(C)C(=O)C(C(C)(C)CC(=O)N(C)CC(C)(C)CN(C)C(=O)Oc2ccc3nc(C4=N[C@@H](C(=O)O)CS4)sc3c2)=C(C)C1=O [PBI 4565, Quinone trimethyllock-N,N′,2,2-tetramethylpropanediamine carbamate luciferin]
Avg RLU (rat diaphorase [3]; NADH no, diaphorase no): 801 RLU
Avg RLU (rat diaphorase [3]; NADH no, diaphorase yes (5 u/ml rat)): 860 RLU
Avg RLU (rat diaphorase [3]; NADH yes (10 μM), diaphorase no): 891 RLU
Avg RLU (rat diaphorase [3]; NADH yes (10 μM), diaphorase yes (5 u/ml rat), 20 min): 98349 RLU
Avg RLU With NADH (rat diaphorase [1]; 20 μM compound, 10 μM NADH, 5 u/ml rat diaphorase, 70 min): 48903 RLU
Avg RLU Without NADH (rat diaphorase [1]; 20 μM compound, no NADH, 5 u/ml rat diaphorase, 70 min): 479 RLU
S/B (rat diaphorase [1]; signal with NADH / without NADH, rat diaphorase): 102
Avg RLU With NADH (Clostridium diaphorase; 20 μM compound, 10 μM NADH, 0.5 u/ml Clostridium diaphorase, 70 min): 18559 RLU
Avg RLU Without NADH (Clostridium diaphorase; 20 μM compound, no NADH, 0.5 u/ml Clostridium diaphorase, 70 min): 646 RLU
S/B (Clostridium diaphorase; signal with NADH / without NADH, Clostridium diaphorase): 29
Avg RLU (rat diaphorase [4]; NADH 0 μM): 967 RLU
Avg RLU (rat diaphorase [4]; NADH 0.006 μM): 1120 RLU
Avg RLU (rat diaphorase [4]; NADH 0.012 μM): 1412 RLU
Avg RLU (rat diaphorase [4]; NADH 0.024 μM): 2300 RLU
Avg RLU (rat diaphorase [4]; NADH 0.049 μM): 3065 RLU
Avg RLU (rat diaphorase [4]; NADH 0.098 μM): 4931 RLU
Avg RLU (rat diaphorase [4]; NADH 0.195 μM): 8863 RLU
Avg RLU (rat diaphorase [4]; NADH 0.39 μM): 16200 RLU
Avg RLU (rat diaphorase [4]; NADH 0.78 μM): 13828 RLU
Avg RLU (rat diaphorase [4]; NADH 1.56 μM): 29258 RLU
Avg RLU (rat diaphorase [4]; NADH 3.125 μM): 63621 RLU
Avg RLU (rat diaphorase [4]; NADH 6.25 μM): 128719 RLU
Avg RLU (rat diaphorase [4]; NADH 12.5 μM): 258360 RLU
Avg RLU (rat diaphorase [4]; NADH 25 μM): 294331 RLU
Avg RLU (rat diaphorase [4]; NADH 50 μM): 287306 RLU
Avg RLU (rat diaphorase [4]; NADH 100 μM): 306242 RLU
First Reading With menadione (rat diaphorase [2]; ~1 min after LDR with 500 μM menadione, 20 μM compound, 10 μM NADH): 324 RLU
First Reading Without menadione (rat diaphorase [2]; ~1 min after LDR, 20 μM compound, 10 μM NADH): 564 RLU
Last Reading With menadione (rat diaphorase [2]; ~6 min after LDR with 500 μM menadione, 20 μM compound, 10 μM NADH): 446 RLU
Last Reading Without menadione (rat diaphorase [2]; ~6 min after LDR, 20 μM compound, 10 μM NADH): 4407 RLU
Avg RLU (rat diaphorase [5]; reaction time 0 min, 20 μM compound, 10 μM NADH): 1294 RLU
Avg RLU (rat diaphorase [5]; reaction time 2 min): 41615 RLU
Avg RLU (rat diaphorase [5]; reaction time 5 min): 69945 RLU
Avg RLU (rat diaphorase [5]; reaction time 10 min): 117067 RLU
Avg RLU (rat diaphorase [5]; reaction time 15 min): 154427 RLU
Avg RLU (rat diaphorase [5]; reaction time 25 min): 252212 RLU
Avg RLU (rat diaphorase [5]; reaction time 30 min): 262123 RLU
Avg RLU (rat diaphorase [5]; reaction time 40 min): 278567 RLU
Avg RLU (rat diaphorase [5]; reaction time 50 min): 328037 RLU
Avg RLU (rat diaphorase [5]; reaction time 60 min): 330433 RLU
